Results from patent US20060275229A1, “Skin care active complex and methods of using same” (priority 2005, published 2006).
Blank lines part the entries; values can stand above or below the compound they belong to.

Key:
[1] = Inhibition of UV-induced lipid peroxidation of phospholipid liposomes (antioxidant test, malonaldehyde); assay type: biochemical; conditions: lecithin liposomes, UV light for 4 hours
Description: Unsaturated fatty acids are present in the phospholipids of cell membranes. Their oxidation compromises membrane integrity and also leads to the generation of breakdown products that are damaging to other important cellular components such as proteins and nucleic acids. Since the skin is exposed to large doses of UV light from the sun, UV-induced peroxidation is a significant route of oxidant damage. […] The left column of Table 2 lists the compounds that were tested, while the right column lists each corresponding compound the effective concentration that inhibits oxidation by 50%. The assay was performed by irradiating a suspension of lecithin liposomes with UV light for 4 hours in the absence of or in the presence of the different compounds listed in the table. […] The rate of lipid oxidation was calculated from the increase in malonaldehyde content.

[2] = target: T1, human neutrophil elastase (Homo sapiens, UniProt P08246); assay: Neutrophil elastase inhibition, chromogenic substrate assay; assay type: biochemical
T1 construct: purchased Athens Research and Technology, GA
T1 sequence (P08246 30-267): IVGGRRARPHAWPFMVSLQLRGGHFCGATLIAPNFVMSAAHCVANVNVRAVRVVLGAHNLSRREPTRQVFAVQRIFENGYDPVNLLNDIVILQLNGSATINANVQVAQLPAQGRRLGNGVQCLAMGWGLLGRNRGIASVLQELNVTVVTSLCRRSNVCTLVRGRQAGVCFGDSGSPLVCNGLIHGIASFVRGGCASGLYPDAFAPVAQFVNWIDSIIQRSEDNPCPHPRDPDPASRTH
Excerpt: In combination, these three enzymes are capable of extensively degrading all of the protein components of the extracellular matrix (ECM) including collagens I and III (the major collagen types in the skin), elastin and the various glycoprotein components (e.g., fibronectin). Elevated expression of these proteases is triggered by inflammatory stimuli such as UV light, and their activity results in ECM damage that is a major component of skin aging.
Ursolic acid is a powerful inhibitor of elastase activity. The inhibition activity of ursolic acid was tested by incubating it with a human neutrophil elastase sample (obtained from Athens Research and Technology, GA) for 10 minutes with a chromogenic substrate, given below. The change in optical density of the substrate at 405 nm was recorded one reading per minute at room temperature reaction mixtures in a 96-well plate. The reaction mixture contains 300 µg/ml methoxysuccinyl-Ala-Ala-Pro-Val-pNA (chromogenic substrate); […] human neutrophil elastase at concentrations in the range 0.55%-3.3%; 70 mM Tris-HCl (pH 8); and 200 mM NaCl.
The % inhibition is calculated relative to the no-sample control.

EC50 (concentration that inhibits oxidation by 50%) [1]: 0.0003 % w/w
SMILES: O=C(O[C@@H]1Cc2c(O)cc(O)cc2O[C@@H]1c1cc(O)c(O)c(O)c1)c1cc(O)c(O)c(O)c1 [Epigallocatechin gallate (EGCG), Epigallocatechin gallate]

EC50 (concentration that inhibits oxidation by 50%) [1]: 0.002 % w/w
SMILES: O=C1O[C@H]([C@@H](O)CO)C(O)=C1O [Vitamin C (Ascorbic Acid), Ascorbic Acid]

EC50 (concentration that inhibits oxidation by 50%) [1]: 0.022 % w/w
SMILES: CC(=O)Oc1c(C)c(C)c2c(c1C)CCC(C)(CCC[C@H](C)CCC[C@H](C)CCCC(C)C)O2 (some centres unmarked) [Vitamin E acetate]

Elastase Inhibition (%) ([2]; concentration 0.0004 %): 26%
Elastase Inhibition (%) ([2]; concentration 0.0008 %): 44%
Elastase Inhibition (%) ([2]; concentration 0.0012 %): 58%
Elastase Inhibition (%) ([2]; concentration 0.002 %): 72%
Elastase Inhibition (%) ([2]; concentration 0.004 %): 81%
Elastase Inhibition (%) ([2]; concentration 0.006 %): 84%
Elastase Inhibition (%) ([2]; concentration 0.01 %): 86%
IC50 value for elastase inhibition ([2]; human neutrophil elastase, chromogenic substrate, Example 4): about 0.0008%
SMILES: C[C@H]1[C@H](C)CC[C@]2(C(=O)O)CC[C@]3(C)C(=CC[C@@H]4[C@@]5(C)CC[C@H](O)C(C)(C)[C@@H]5CC[C@]43C)[C@H]12 [Ursolic Acid, Ursolic acid]
